# Reference: US20110178396A1, “Nicotinamide Derivatives” (CRC FOR BIOMEDICAL IMAGING DEVELOPMENT LTD., priority 2008, published 2011)
# Test system: B16F0 melanoma tumour
# Test: Biodistribution in B16 melanoma bearing mice
# Format: in vivo, C57BL/6J mice
# Details: for Organ distribution Intestine / Organ distribution Liver / Organ distribution Spleen / Organ distribution Stomach / Organ distribution Thyroid / Organ distribution Tumour: B16F0 tumour, mean ± S.D.
# Protocol: Animal experiments were performed in compliance with the NHMRC Australian Code of Practice for the care and use of animals for scientific purposes. Female C57BL/6J black and BALB/c nude albino mice of 5 weeks age were obtained from the Animal Resources Centre, Western Australia. B16F0 murine melanoma cells were originally obtained from European Collection of Cell Cultures (UK) and A375 human amelanotic melanoma cells were originally obtained from American Type Culture Collection (USA). Before transplantation, B16F0 and A375 melanoma cells were maintained as a monolayer in RPMI culture medium supplemented with 10% foetal calf serum and antibiotics and passaged with trypsinisation. Early passages were frozen and stored in liquid nitrogen. Cells were passaged to P=10 and then discarded. Frozen aliquots were grown in a monolayer culture to between 80-95% confluence and for transplantation were trypsinised and washed with Ca^2+ and Mg^2+ free phosphate buffered saline (PBS). For inoculation, B16F0 melanoma cells were resuspended in Ca^2+ and Mg^2+ free PBS at 3 or 5×10^6 viable cells per ml and 0.1 ml was subcutaneously injected at the left flank of 6-7 weeks old C57BL/6J mice. Eleven days later, tumours could be palpated in >98% of inoculated animals. A375 human melanoma cells were resuspended at 1×10^7 viablecells per ml and 0.1 ml was injected subcutaneously at the left flank of 6 weeks old BALB/c nude mice and 25-26 days later tumours could be palpated with ˜60% of inoculated animals developing tumours.
# Eleven days (B16F0 melanoma) and 25 days (A375 human melanoma) after tumour transplantation, the [^18F]nicotinamides (0.5-1.5 MBq, 100 μl) and [^123I]nicotinamide (0.37-0.74 MBq, 100 μl) derivatives were injected intravenously via the tail vein into mice (15-18 g). Time points of 1, 3, 6, 24, 48, 72 h after injection were chosen for determining the distribution of each compound in various organs and tissues for the iodine-123 labelled compounds and between 15 min and 6 hours (e.g. 15 min, 30 min, 1 h, 2 h, 4 h or 6 h) were chosen for the ^18F-labelled compounds. At defined times post injection, groups of mice (n=5) were weighed, sacrificed by CO2 administration followed by cervical dislocation and dissected. Selected organs were weighed and their radioactivity measured with a γ-counter. The remaining activity in the carcass was also determined in order to obtain the total activity in the mouse at defined time points. The fraction of injected activity (% ID) in the organ was calculated by comparison with suitable dilutions of the injected dose. Then, the radioactivity concentration in the organ (% ID/g) was found by dividing the % ID for each organ by the weight of the organ.
# [1] = B16 melanoma bearing mice, 15 min
# [2] = B16 tumour, C57BL/6J mice, 1 h, mean ± SD, n = 5
# [3] = B16 tumour, C57BL/6J mice, 6 h, mean ± SD, n = 5
# [4] = B16 tumour, C57BL/6J mice, 24 h, mean ± SD, n = 5
compound,measurement,setting,value
"CCN(CC)CCNC(=O)c1ccnc(F)c1 [[^18F]MEL8, 6-Fluoro-N-[2-(diethylamino)ethyl]isonicotinamide]",uptake BLOOD,[1],2.55 % ID/g
same,uptake BONE,[1],4.03 % ID/g
same,uptake BRAIN,[1],3.47 % ID/g
same,uptake EYES,[1],17.25 % ID/g
same,uptake GIT,[1],7.03 % ID/g
same,uptake HEART,[1],3.51 % ID/g
same,uptake KIDNEY,[1],19.45 % ID/g
same,uptake LIVER,[1],12.65 % ID/g
same,uptake LUNGS,[1],5.67 % ID/g
same,uptake MUSCLE,[1],4.16 % ID/g
same,uptake SKIN,[1],2.40 % ID/g
same,uptake SPLEEN,[1],10.27 % ID/g
same,uptake STOMACH,[1],13.20 % ID/g
same,uptake THYROID,[1],4.81 % ID/g
same,uptake TUMOUR,[1],6.99 % ID/g
same,uptake BLOOD,"B16 melanoma bearing mice, 1 h",0.77 % ID/g
same,uptake BONE,"B16 melanoma bearing mice, 1 h",1.52 % ID/g
same,uptake BRAIN,"B16 melanoma bearing mice, 1 h",1.37 % ID/g
same,uptake EYES,"B16 melanoma bearing mice, 1 h",23.66 % ID/g
same,uptake GIT,"B16 melanoma bearing mice, 1 h",2.85 % ID/g
same,uptake HEART,"B16 melanoma bearing mice, 1 h",1.14 % ID/g
same,uptake KIDNEY,"B16 melanoma bearing mice, 1 h",4.75 % ID/g
same,uptake LIVER,"B16 melanoma bearing mice, 1 h",3.19 % ID/g
same,uptake LUNGS,"B16 melanoma bearing mice, 1 h",1.81 % ID/g
same,uptake MUSCLE,"B16 melanoma bearing mice, 1 h",1.27 % ID/g
same,uptake SKIN,"B16 melanoma bearing mice, 1 h",0.88 % ID/g
same,uptake SPLEEN,"B16 melanoma bearing mice, 1 h",3.19 % ID/g
same,uptake STOMACH,"B16 melanoma bearing mice, 1 h",5.25 % ID/g
same,uptake THYROID,"B16 melanoma bearing mice, 1 h",2.22 % ID/g
same,uptake TUMOUR,"B16 melanoma bearing mice, 1 h",12.22 % ID/g
same,uptake BLOOD,"B16 melanoma bearing mice, 3 h",0.12 % ID/g
same,uptake BONE,"B16 melanoma bearing mice, 3 h",0.77 % ID/g
same,uptake BRAIN,"B16 melanoma bearing mice, 3 h",0.19 % ID/g
same,uptake EYES,"B16 melanoma bearing mice, 3 h",18.81 % ID/g
same,uptake GIT,"B16 melanoma bearing mice, 3 h",0.72 % ID/g
same,uptake HEART,"B16 melanoma bearing mice, 3 h",0.33 % ID/g
same,uptake KIDNEY,"B16 melanoma bearing mice, 3 h",0.45 % ID/g
same,uptake LIVER,"B16 melanoma bearing mice, 3 h",0.42 % ID/g
same,uptake LUNGS,"B16 melanoma bearing mice, 3 h",0.37 % ID/g
same,uptake MUSCLE,"B16 melanoma bearing mice, 3 h",0.28 % ID/g
same,uptake SKIN,"B16 melanoma bearing mice, 3 h",0.15 % ID/g
same,uptake SPLEEN,"B16 melanoma bearing mice, 3 h",2.32 % ID/g
same,uptake STOMACH,"B16 melanoma bearing mice, 3 h",0.82 % ID/g
same,uptake THYROID,"B16 melanoma bearing mice, 3 h",1.48 % ID/g
same,uptake TUMOUR,"B16 melanoma bearing mice, 3 h",8.80 % ID/g
same,uptake BLOOD,"B16 melanoma bearing mice, 6 h",0.06 % ID/g
same,uptake BONE,"B16 melanoma bearing mice, 6 h",0.43 % ID/g
same,uptake BRAIN,"B16 melanoma bearing mice, 6 h",0.07 % ID/g
same,uptake EYES,"B16 melanoma bearing mice, 6 h",16.49 % ID/g
same,uptake GIT,"B16 melanoma bearing mice, 6 h",0.23 % ID/g
same,uptake HEART,"B16 melanoma bearing mice, 6 h",0.17 % ID/g
same,uptake KIDNEY,"B16 melanoma bearing mice, 6 h",0.25 % ID/g
same,uptake LIVER,"B16 melanoma bearing mice, 6 h",0.60 % ID/g
same,uptake LUNGS,"B16 melanoma bearing mice, 6 h",0.14 % ID/g
same,uptake MUSCLE,"B16 melanoma bearing mice, 6 h",0.17 % ID/g
same,uptake SKIN,"B16 melanoma bearing mice, 6 h",0.29 % ID/g
same,uptake SPLEEN,"B16 melanoma bearing mice, 6 h",1.31 % ID/g
same,uptake STOMACH,"B16 melanoma bearing mice, 6 h",0.30 % ID/g
same,uptake THYROID,"B16 melanoma bearing mice, 6 h",1.02 % ID/g
same,uptake TUMOUR,"B16 melanoma bearing mice, 6 h",7.20 % ID/g
"CCN(CC)CCNC(=O)c1ccc(I)nc1 [[^123I]14, N-(2-(Diethylamino)ethyl)-6-iodonicotinamide]",Organ distribution Intestine,"C57BL/6J mice, 1 h, n = 5",10 ± 1 % ID/organ
same,Organ distribution Liver,"C57BL/6J mice, 1 h, n = 5",2.7 ± 0.7 % ID/organ
same,Organ distribution Spleen,"C57BL/6J mice, 1 h, n = 5",0.31 ± 0.07 % ID/organ
same,Organ distribution Stomach,"C57BL/6J mice, 1 h, n = 5",9 ± 1 % ID/organ
same,Organ distribution Thyroid,"C57BL/6J mice, 1 h, n = 5",1.2 ± 0.7 % ID/organ
same,Organ distribution Tumour,"C57BL/6J mice, 1 h, n = 5",1.8 ± 0.4 % ID/organ
same,Organ distribution Intestine,"C57BL/6J mice, 6 h, n = 5",5 ± 1 % ID/organ
same,Organ distribution Liver,"C57BL/6J mice, 6 h, n = 5",1.3 ± 0.4 % ID/organ
same,Organ distribution Spleen,"C57BL/6J mice, 6 h, n = 5",0.17 ± 0.05 % ID/organ
same,Organ distribution Stomach,"C57BL/6J mice, 6 h, n = 5",7 ± 2 % ID/organ
same,Organ distribution Thyroid,"C57BL/6J mice, 6 h, n = 5",3.3 ± 0.8 % ID/organ
same,Organ distribution Tumour,"C57BL/6J mice, 6 h, n = 5",1.4 ± 0.8 % ID/organ
same,Organ distribution Intestine,"C57BL/6J mice, 24 h, n = 5",0.35 ± 0.03 % ID/organ
same,Organ distribution Liver,"C57BL/6J mice, 24 h, n = 5",0.19 ± 0.04 % ID/organ
same,Organ distribution Spleen,"C57BL/6J mice, 24 h, n = 5",0.01 ± 0.00 % ID/organ
same,Organ distribution Stomach,"C57BL/6J mice, 24 h, n = 5",0.4 ± 0.1 % ID/organ
same,Organ distribution Thyroid,"C57BL/6J mice, 24 h, n = 5",6.5 ± 2.8 % ID/organ
same,Organ distribution Tumour,"C57BL/6J mice, 24 h, n = 5",0.11 ± 0.06 % ID/organ
same,tumour standardized uptake value (SUVt),"B16 tumour, C57BL/6J mice, 1 h",1.2 ± 0.1
same,Uptake Lung,[2],4.8 ± 0.4 % ID/g
same,uptake BLOOD,[2],6.9 ± 0.6 % ID/g
same,uptake BRAIN,[2],0.36 ± 0.05 % ID/g
same,uptake HEART,[2],2.3 ± 0.2 % ID/g
same,uptake KIDNEY,[2],4.2 ± 0.6 % ID/g
same,uptake LIVER,[2],3.1 ± 0.6 % ID/g
same,uptake TUMOUR,[2],3.8 ± 0.2 % ID/g
same,tumour standardized uptake value (SUVt),"B16 tumour, C57BL/6J mice, 6 h",1.0 ± 0.1
same,Uptake Lung,[3],2.6 ± 0.8 % ID/g
same,uptake BLOOD,[3],3.6 ± 1.0 % ID/g
same,uptake BRAIN,[3],0.14 ± 0.04 % ID/g
same,uptake HEART,[3],1.1 ± 0.3 % ID/g
same,uptake KIDNEY,[3],2.4 ± 0.7 % ID/g
same,uptake LIVER,[3],1.4 ± 0.5 % ID/g
same,uptake TUMOUR,[3],2.3 ± 0.5 % ID/g
same,tumour standardized uptake value (SUVt),"B16 tumour, C57BL/6J mice, 24 h",0.5 ± 0.2
same,Uptake Lung,[4],0.2 ± 0.1 % ID/g
same,uptake BLOOD,[4],0.25 ± 0.12 % ID/g
same,uptake BRAIN,[4],0.02 % ID/g
same,uptake HEART,[4],0.10 ± 0.05 % ID/g
same,uptake KIDNEY,[4],0.18 ± 0.05 % ID/g
same,uptake LIVER,[4],0.20 ± 0.04 % ID/g
same,uptake TUMOUR,[4],0.26 ± 0.14 % ID/g
